Results reported in US9771316B2, “Phenoxyalkylamine compound” (OSAKA UNIVERSITY, priority 2013, dated 2017).
Where a name gives a salt, the structure may show the parent alone.

Legend:
human LAT-1 [1] = molecular target: T1, human LAT-1 (Homo sapiens (Human), UniProt Q01650); assay: Inhibition of [14C]L-leucine uptake into human LAT-1 stably expressing HEK293 cell line (uptake buffer, 1 min); type: cell-based; conditions: HEK293 human LAT-1 stably expressing cells; Na+-free HBSS pH7.4; [14C]L-leucine or alanine 1 μM, uptake 1 min; read-out: LAT-1 inhibitory activity/IC50
Description: (§1) 1) LAT-1 Inhibitory Activity and LAT-2 Inhibitory Activity Inhibitory Effect on Uptake of Amino Acid into Human LAT-1 Stably Expressing Cell Line and LAT-2 Stably Expressing Cell Line
(§2) Expression vector each expressing a gene was inserted using Lipofectamine 2000 (Invitrogen) to cultured cell line HEK293 cell derived from human fetus renal cell. The resistant strains were selected using G418, and among them, the strains showing human LAT-1- or LAT-2-specific uptake of amino acid were established as stably expressing cell lines, respectively.
(§3) The above-mentioned stably expressing cells were plated on a 24-well collagen plate at 1.2×10^5 cells/well, and, after 48 hr, the cells were washed (×3) with uptake buffer ([…] Hank's balanced salt solution (HBSS) pH7.4) kept at 37° C. Each test compound (0.1, 1, 3, 10, 30, 100, 300 and 1000 μM) was added thereto, and the mixture was kept at 37° C. for 3 min. [^14C]L-leucine or alanine (1 μM) was added thereto, and [^14C]L-leucine or alanine (1 μM) was uptaken for 1 min. The mixture was washed with ice-cold uptake buffer (×3). Then, the cells were dissolved in 0.1M NaOH aqueous solution (500 μL), and the protein concentration was measured using the 20 μL of the solution. The uptaken radioactivity was measured using the remaining solution. The measured results were corrected with the protein concentration. The results were evaluated as inhibitory capacity 50%, i.e., IC50, which corresponds to the concentration inhibiting 50% of the cellular uptake of amino acid.

human LAT-2 = human LAT-2 (Homo sapiens (Human), UniProt Q9UHI5); assay: Inhibition of [14C] amino acid uptake into human LAT-2 stably expressing HEK293 cell line (uptake buffer, 1 min); type: cell-based; conditions: HEK293 human LAT-2 stably expressing cells; Na+-free HBSS pH7.4; [14C]L-leucine or alanine 1 μM, uptake 1 min; read-out: LAT-2 inhibitory activity/IC50
Description: as §1, §2, §3

MIAPaCa-2 cells = assay: Growth inhibitory effect on human pancreatic cancer cell line MIAPaCa-2 (Trypan-Blue method); type: cell-based; conditions: MIA PaCa-2, 0.2% DMSO, counted every 24 hr for 5 days
Procedure: 2) Growth Inhibitory Effect on Human Pancreatic Cancer Cell Line MIAPaCa-2
MIAPaCa-2 cells were plated on a 12-well plate at 2000 cells/well, and cultured for 48 hr without addition of test compound. 48 hr after the beginning of the culture, each test compound (0.03, 0.1, 0.3, 1, 3, 6, 10, 30, 100 μM) was added thereto in the presence of 0.2% DMSO. The cells were counted every 24 hr for 5 days, and the inhibitory effect on the MIAPaCa-2 cell growth was observed by Trypan-Blue method. The results were evaluated as inhibitory capacity 50%, i.e., IC50, which corresponds to the concentration inhibiting 50% of the cell growth inhibitory activity.

[2] = tested on: subcutaneous tumor derived from human pancreatic cancer cell line MIAPaCa-2; assay: Enlargement inhibitory effect on subcutaneous tumor derived from MIAPaCa-2 in nude mice; type: in vivo, nude mice (BALB/cAJc1-nu); conditions: 1 mg/kg orally once a day for 7 days; female nude mice; tumor volume after 15 to 21 days vs control group
Procedure: Experimental Example 2 Biological Activity Evaluation Test Enlargement Inhibitory Effect on Subcutaneous Tumor Derived from Human Pancreatic Cancer Cell Line MIAPaCa-2 in Nude Mice
Tumor tissue (0.1 g) derived from MIAPaCa-2 cell was subcutaneously transplanted into female nude mice (6-week old, BALB/cAJc1-nu), which the tumor tissue was formed in different nude mice in advance. 5% MC suspension was prepared from saline and each test compound (1 mg/kg), and it was orally-administered once a day for 7 days from 2 days after transplant. The time-dependent change of the tumor volume was measured by measuring (major axis×minor axis×minor axis)/2 of the tumor volume (weight) according to the method in Sawa, Jun Wu, Takaaki Akaike, and Hiroshi Maeda (2000) Cancer research 60, 666-671.
The tumor volume after 15 to 21 days administration of compound administration group was compared with those of control group, and the tumor growth inhibitory ratio was calculated. The anti-tumor action was evaluated as tumor growth inhibitory ratio.

human LAT-1 [3] = molecular target: T1, human LAT-1; assay: Inhibition of [14C]L-leucine uptake into human LAT-1 stably expressing cells in culture solution (MEM medium, 120 min); type: cell-based; conditions: MEM medium containing non-essential amino acid, [14C]L-leucine uptake 120 min, read-out: LAT-1 inhibitory activity/IC50
Procedure: The above-mentioned human LAT-1 stably expressing cells were plated on a 24-well collagen plate at 1.2×10^5 cells/well, and, after 48 hr, the cells were washed (×3) with new culture solution (MEM medium (containing non-essential amino acid)) kept at 37° C. Each test compound (0.1, 1, 3, 10 and 30 μM) was added thereto, and the mixture was kept at 37° C. for 3 min. [^14C]L-leucine was added thereto, and [^14C]L-leucine was uptaken in the culture solution for 120 min. The mixture was washed (×3) with ice-cold buffer (Na^2+-free Hank's balanced salt solution (HBSS) pH7.4). Then, the cells were dissolved in 0.1M NaOH aqueous solution (500 μL), and the protein concentration was measured using the 20 μL of the solution. The uptaken radioactivity was measured using the remaining solution. The measured results were corrected with the protein concentration. The results were evaluated as inhibitory capacity 50%, i.e., IC50, which corresponds to the concentration inhibiting 50% of the cellular uptake of amino acid.

Sequence of human LAT-2 (Q9UHI5 whole entry): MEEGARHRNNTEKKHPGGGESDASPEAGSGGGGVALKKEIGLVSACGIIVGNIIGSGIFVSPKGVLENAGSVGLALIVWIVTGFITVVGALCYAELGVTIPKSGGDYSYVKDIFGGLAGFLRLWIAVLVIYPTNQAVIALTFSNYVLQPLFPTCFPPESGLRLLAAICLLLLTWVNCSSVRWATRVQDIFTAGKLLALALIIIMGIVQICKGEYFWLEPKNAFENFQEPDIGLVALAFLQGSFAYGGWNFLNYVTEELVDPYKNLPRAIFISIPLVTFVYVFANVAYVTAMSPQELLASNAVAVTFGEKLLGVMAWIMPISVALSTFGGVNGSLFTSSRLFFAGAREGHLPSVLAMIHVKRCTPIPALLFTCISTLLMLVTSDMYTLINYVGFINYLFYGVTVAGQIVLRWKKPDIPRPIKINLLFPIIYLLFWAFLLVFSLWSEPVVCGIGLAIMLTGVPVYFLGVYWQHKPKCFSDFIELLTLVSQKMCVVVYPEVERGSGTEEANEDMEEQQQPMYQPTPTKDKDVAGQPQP
Sequence of human LAT-2 (P08195 102-630 partner): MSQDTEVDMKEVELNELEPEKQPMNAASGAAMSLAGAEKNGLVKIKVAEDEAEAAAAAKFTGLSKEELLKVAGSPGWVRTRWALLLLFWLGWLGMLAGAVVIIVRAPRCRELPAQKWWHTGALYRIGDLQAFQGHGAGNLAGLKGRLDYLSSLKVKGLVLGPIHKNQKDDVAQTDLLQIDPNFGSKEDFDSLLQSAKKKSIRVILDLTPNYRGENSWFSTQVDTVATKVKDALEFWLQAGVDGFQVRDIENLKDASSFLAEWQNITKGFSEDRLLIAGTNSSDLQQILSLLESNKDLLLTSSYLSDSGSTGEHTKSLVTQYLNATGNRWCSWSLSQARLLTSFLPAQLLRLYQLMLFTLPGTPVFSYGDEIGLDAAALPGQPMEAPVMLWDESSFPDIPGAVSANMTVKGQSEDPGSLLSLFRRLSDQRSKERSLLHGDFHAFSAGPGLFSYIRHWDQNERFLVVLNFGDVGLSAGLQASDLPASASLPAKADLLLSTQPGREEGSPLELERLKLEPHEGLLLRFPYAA
T1 sequence (Q01650 whole entry): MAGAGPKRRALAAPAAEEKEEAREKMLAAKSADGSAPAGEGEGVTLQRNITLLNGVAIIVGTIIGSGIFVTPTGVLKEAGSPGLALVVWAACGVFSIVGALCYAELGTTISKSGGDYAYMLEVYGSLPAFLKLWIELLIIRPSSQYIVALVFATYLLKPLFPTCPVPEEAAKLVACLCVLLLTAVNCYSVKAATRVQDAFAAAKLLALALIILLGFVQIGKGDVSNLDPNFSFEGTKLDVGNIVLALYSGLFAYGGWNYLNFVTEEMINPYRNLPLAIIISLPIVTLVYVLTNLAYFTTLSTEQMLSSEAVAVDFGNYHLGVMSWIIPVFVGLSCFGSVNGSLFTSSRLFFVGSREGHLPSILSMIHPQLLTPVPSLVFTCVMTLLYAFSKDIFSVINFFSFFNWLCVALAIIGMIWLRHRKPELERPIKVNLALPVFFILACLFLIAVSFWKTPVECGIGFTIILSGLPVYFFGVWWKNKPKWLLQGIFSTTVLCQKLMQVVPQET
T1 sequence (P08195 102-630 partner): as the sequence (P08195 102-630 partner) above

Row | SMILES | IC50 (human LAT-1 [1]) [µM] | IC50 (human LAT-2) [µM] | IC50 (MIAPaCa-2 cells) [µM] | IC50 (human LAT-1 [3]) [µM] | tumor growth inhibitory ratio [2] [%]
1 | NCCCCC(Oc1ccc(OC(F)(F)F)c(F)c1)c1cccs1 (stereo not drawn) [Example 53] | 146 | 258 |  |  | 
2 | NCCCCC(Oc1ccc(C(F)(F)F)c(F)c1)c1cccs1 (stereo not drawn) [Example 54] | 177 | 300 |  |  | 
3 | NCCCCCC(Oc1ccc(C(F)(F)F)cc1)c1ccccc1 (stereo not drawn) [Example 6, 6-phenyl-6-[4-(trifluoromethyl)phenoxy]hexan-1-amine] | 89.1 | 128 |  |  | 
4 | NCCCC[C@H](Oc1ccc(OC(F)(F)F)cc1)c1ccccc1.O=C(O)/C=C/C(=O)O [Example 71, (S)-5-phenyl-5-[4-(trifluoromethoxy)phenoxy]pentan-1-amine fumarate] | 244 | 131 | 3.36 |  | 85.9
5 | NCCCC[C@H](Oc1ccc(C(F)(F)F)cc1)c1ccccc1 [Example 67, (S)-5-phenyl-5-[4-(trifluoromethyl)phenoxy]pentan-1-amine fumarate] | 96.2 | 207 | 4.16 |  | 
6 | NCCCCC(Oc1ccc(OC(F)(F)F)cc1)c1ccccc1.O=C(O)/C=C/C(=O)O (stereo not drawn) [Example 73] |  |  |  |  | 83.6
7 | CCC(C)c1ccc(OC(CCCCN)c2cccs2)cc1 (stereo not drawn) [Example 51] | 261 | 261 |  |  | 
8 | NCCCCC(Oc1ccc(C(F)(F)F)cc1)c1ccccc1.O=C(O)/C=C/C(=O)O (stereo not drawn) [Example 2, 5-phenyl-5-[4-(trifluoromethyl)phenoxy]pentan-1-amine fumarate] |  |  |  |  | 80.5
9 | NCCCCC(Oc1ccc(OC(F)(F)F)cc1)c1cccs1 (stereo not drawn) [Example 50] | 123 | 313 |  |  | 
10 | NCCCCC(Oc1ccc(C(F)(F)F)c(F)c1)c1ccccc1.O=C(O)/C=C/C(=O)O (stereo not drawn) [Example 72] |  |  |  |  | 84.4

More lines, main results first:

Row | IC50 (human LAT-1 [1]) [µM] | IC50 (human LAT-2) [µM] | IC50 (MIAPaCa-2 cells) [µM] | IC50 (human LAT-1 [3]) [µM] | SMILES | tumor growth inhibitory ratio [2] [%]
11 | 69 | 53 | 0.83 |  | NCCCC[C@H](Oc1ccc(C(F)(F)F)c(F)c1)c1ccccc1.O=C(O)/C=C/C(=O)O [Example 69, (S)-5-[3-fluoro-4-(trifluoromethyl)phenoxy]-5-phenylpentan-1-amine fumarate] | 85.5
12 | 56.6 | 357 |  |  | NCCCCC(Oc1ccc(C(F)(F)F)cc1)c1cccs1 (stereo not drawn) [Example 48, 5-(thiophen-2-yl)-5-[4-(trifluoromethyl)phenoxy]pentan-1-amine] | 
13 | 62.8 | 194 | 0.17 |  | NCCCC[C@@H](Oc1ccc(C(F)(F)F)cc1)c1ccccc1 [Example 66, (R)-5-phenyl-5-[4-(trifluoromethyl)phenoxy]pentan-1-amine fumarate] | 
14 | 39.4 | 169 |  |  | NCCCCC(Oc1ccc(OC(F)(F)F)cc1)c1ccccc1 (stereo not drawn) [Example 44] | 
15 | 36.4 | 156 | 0.43 |  | NCCCC[C@@H](Oc1ccc(C(F)(F)F)c(F)c1)c1ccccc1.O=C(O)/C=C/C(=O)O [Example 68, (R)-5-[3-fluoro-4-(trifluoromethyl)phenoxy]-5-phenylpentan-1-amine fumarate] | 84.4
16 | 57.5 | 146 |  |  | NCCCCC(Oc1ccc(C(F)(F)F)cc1)c1ccccc1 (stereo not drawn) [Example 1, 5-phenyl-5-[4-(trifluoromethyl)phenoxy]pentan-1-amine] | 
17 | 76 | 218 |  |  | NCCCCC(Oc1ccc(C(F)(F)F)c(F)c1)c1ccccc1 (stereo not drawn) [Example 29] | 
18 | 36.6 | 131 | 0.11 | 10.4 | NCCCC[C@@H](Oc1ccc(OC(F)(F)F)cc1)c1ccccc1.O=C(O)/C=C/C(=O)O [Example 70, (R)-5-phenyl-5-[4-(trifluoromethoxy)phenoxy]pentan-1-amine fumarate] | 90.2
19 | 57 | 253 |  |  | CCC(C)c1ccc(OC(CCCCN)c2ccccc2)cc1 (stereo not drawn) [Example 26] | 
20 | 63 | 100 |  |  | NCCCCC(Oc1ccc(C(F)(F)F)cc1)c1cccc(F)c1 (stereo not drawn) [Example 12] | 
